Source: patent US20210353593A1 (Chinook Therapeutics, Inc., priority 2019, published 2021)
Positions of bridges follow the written chain, without caps; N, C: chain ends. No end group written: not given here.

Tested on: IL-6 production in primary human mesangial cells
Test: ET-1 induced IL-6 production (ELISA) in primary human renal mesangial cells
Type: cell-based

## ET-1: endothelin 1, used to stimulate primary human mesangial cells (CSCSSLMDKECVYFCHLDIIW; disulfide 1-15, 3-11; ends not checked; UniProt P05305 53-73, looked up)
Exposed to ET-1 over 48 hours
  increase in IL-6 production by primary human mesangial cells: ~6 fold
Exposed to ET-1 over 72 hours
  increase in IL-6 production by primary human mesangial cells: ~2.2 fold
